Results as given in PubChem BioAssay (NCI).
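How tested: cells in 96-well plates exposed to compound for 48 hours at five concentrations. TGI: total growth inhibition.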 Where a SMILES comes first, the peptide text is derived from it. [ ]: non-standard residue; d: D form. The star is where a group is joined. ξ: configuration not given here. ξD = NC(CC(=O)O)C(=O)O; Ac3c = NC1(C(=O)O)CC1; Boc = CC(C)(C)OC(=O)*; OBn = c1ccc(CO*)cc1

How the values were obtained:
Experiment in all cases: inhibition of tumour cell growth, NCI panel, 48 h
A498 renal = system: A498 renal
CCRF-CEM leukemia = system: CCRF-CEM leukemia
DU-145 prostate = system: DU-145 prostate
HT29 colon = system: HT29 colon
OVCAR-8 ovarian = system: OVCAR-8 ovarian
RXF 393 renal = system: RXF 393 renal
SK-MEL-2 melanoma = system: SK-MEL-2 melanoma
SK-OV-3 ovarian = system: SK-OV-3 ovarian
SW-620 colon = system: SW-620 colon
U251 CNS = system: U251 CNS

| Compound | TGI (A498 renal) | TGI (CCRF-CEM leukemia) | TGI (DU-145 prostate) | TGI (HT29 colon) | TGI (OVCAR-8 ovarian) | TGI (RXF 393 renal) | TGI (SK-MEL-2 melanoma) | TGI (SK-OV-3 ovarian) | TGI (SW-620 colon) | TGI (U251 CNS) |
| --- | --- | --- | --- | --- | --- | --- | --- | --- | --- | --- |
| O=C(NCCCCNCCCNC(=O)c1ccccc1)c1ccccc1 | > 100 µM | > 100 µM | > 100 µM | > 100 µM | > 100 µM | > 100 µM | > 100 µM | > 100 µM | > 100 µM | > 100 µM |
| CCCC(CC)c1c(O)c(O)c(C(CC)CCC)c(C(CC)CCC)c1C(CC)CCC (centres undefined) | > 10 µM | > 10 µM | > 10 µM | > 10 µM | > 10 µM | > 10 µM | > 10 µM | > 10 µM | > 10 µM | > 10 µM |
| COCN1CCN=c2c1c1c3c(c4ccccc4n23)CCC1 | > 100 µM | > 100 µM | > 100 µM | > 100 µM | > 100 µM | > 100 µM | > 100 µM | > 100 µM | > 100 µM | > 100 µM |
| O=c1[nH]c2ccccc2nc1/C=C(\O)C(F)F | > 100 µM | > 100 µM | > 100 µM | > 100 µM | > 100 µM | > 100 µM | > 100 µM | > 100 µM | > 100 µM | > 100 µM |
| O=C(OCCN1CCCCC1)C(c1ccccc1)C1(O)CCSCC1 (centres undefined) | > 100 µM | > 100 µM | > 100 µM | > 100 µM | > 100 µM | > 100 µM | > 100 µM | > 100 µM | > 100 µM | > 100 µM |
| CC(C)[C@H]1NC(=O)[C@H]2N=C(O[C@@H]2C)[C@@H]2CCCN2C(=O)[C@H](Cc2ccccc2)NC(=O)[C@@H]2CSC(=N2)[C@@H](Cc2ccccc2)NC(=O)[C@@H]2CSC1=N2 | > 100 µM | > 100 µM | > 100 µM | > 100 µM | > 100 µM | > 100 µM | > 100 µM | > 100 µM | > 100 µM | > 100 µM |
| O=c1[nH]c2cc3cccnc3c(Cl)c2nc1C(F)(F)F | > 100 µM | 98.2 µM | > 100 µM | > 100 µM | > 100 µM | > 100 µM | > 100 µM | > 100 µM | > 100 µM | > 100 µM |
| N#Cc1c(N2CCCC2)ncn(Cc2ccccc2)c1=S | > 100 µM | > 100 µM | > 100 µM | > 100 µM | > 100 µM | > 100 µM | > 100 µM | > 100 µM | > 100 µM | > 100 µM |
| COC(=O)c1ccccc1C#CCCCOS(C)(=O)=O | > 10 µM | > 10 µM | > 10 µM | > 10 µM | > 10 µM | > 10 µM | > 10 µM | > 10 µM | > 10 µM | > 10 µM |
| NCCNCCCCCCNC(=O)c1cccc2cc3ccccc3nc12 | 9.49 µM | 7.26 µM | 2.92 µM | 3.77 µM | 5.27 µM | 9.68 µM | 10.2 µM |  | 4.78 µM | 4.15 µM |
| O=C1C=C2CO[C@H]3OC[C@H](O)[C@@H]1[C@@H]23 | > 100 µM | 66.8 µM | > 100 µM | > 100 µM | > 100 µM | 42 µM | 37.3 µM | > 100 µM | > 100 µM | 63.6 µM |
| O=C(CN1CCCCC1)c1ccc2c(c1)Sc1ccccc1O2 | 39.3 µM | 34.4 µM | 49.3 µM | 23.7 µM | 33.2 µM | 21 µM | 32.8 µM | 29.6 µM | 39.1 µM | 39.6 µM |
| COc1ccc2c(c1)nc1n2C(N)=Nc2ccccc2S1 | > 88.4 µM | > 23.3 µM | > 100 µM | > 100 µM | > 82.1 µM | > 78.3 µM | > 100 µM | > 100 µM | > 100 µM | > 100 µM |
| COC(=O)C1(NC(=O)C(CC(=O)OCc2ccccc2)NC(=O)OC(C)(C)C)CC1 (centres undefined) (Boc-[ξD](OBn)-[Ac3c]-OMe) | > 100 µM | > 100 µM | > 100 µM | > 100 µM | > 100 µM | > 100 µM | > 100 µM | 77.4 µM | > 100 µM | > 100 µM |
| COc1c(OC)c(O)c2c(=O)c(OC)c(-c3ccc4c(c3)OCO4)oc2c1O | > 100 µM | > 100 µM | > 100 µM | > 100 µM | > 100 µM | > 100 µM | > 100 µM | > 100 µM | > 100 µM | > 100 µM |
| N#CC(C#N)=Cc1c(O)ccc2ccccc12 | 31.1 µM | 5.17 µM | 27.8 µM | 41.1 µM | 36.4 µM | 31.2 µM | 37.8 µM | 34.7 µM | 34.5 µM | 32.5 µM |
| CCOC(=O)C1=C(C)C(C(=O)OC)/C(=C/c2cccc3cccnc23)C1=O (centres undefined) | > 10 µM | > 10 µM | > 10 µM | > 10 µM | > 10 µM | > 10 µM | > 10 µM | > 10 µM | > 10 µM | > 10 µM |
| Cc1cc(Nc2ccc(N=Nc3ccc(O)c4ncccc34)cc2)nc(C)n1 | 46.1 µM | 7.22 µM | 69.7 µM | > 75.2 µM | 48.3 µM | 34.6 µM | 34.4 µM | > 72.7 µM | > 66.5 µM | 33.4 µM |
